Assay [1] relates to lyso-PLD. The assay is described as follows: In vitro membrane lyso-PLD assay (B-lyso-PC substrate, B-LPA product). It is filed as biochemical, rat.
Assay [2] relates to lyso-PLD. It is filed as biochemical, human. The following applies: PC-3 membranes; for EC50: single-site competition fit, read-out: EC50 for inhibiting B-lyso-PC conversion to B-LPA; for Ability to compete with B-lyso-PC for utilization by lyso-PLD: up to 4.6 mM.
The target in assay [3] is T1, PLD (Rattus norvegicus, UniProt P70498).
T1 construct: PC12K membranes were incubated with either B-PC (for PLD assay) or commercial B-lyso-PC (for lyso-PLD assay); endogenous in cells; host or cells: PC12K and A7r5 cell membranes (100,000 x g pellet)
The assay is described as follows: In vitro fluorescent PLD assay in cell membranes (B-PC substrate with butanol, B-PBt product). Format: biochemical.

The test system of assay [4] is PLD. The experiment in a line: PLD activity in intact cells. It is filed as cell-based. As to conditions: multiple cell types, varying experimental conditions.
Assay [5] has as its system PLD. On the set-up: method as in PMID 9655185. The following applies: cited from earlier work.
A further assay concerns PLC from Bacillus cereus. The following applies: cited from earlier work.
In a further assay the test system is cabbage PLD. As to conditions: cited from earlier work.

Where two headings read alike, the source gives them in different places.

The values that follow come from PMC10969092, “Characterization of Lysophospholipase D Activity in Mammalian Cell Membranes” (Cells, 2024).

T1 sequence (P70498 whole entry): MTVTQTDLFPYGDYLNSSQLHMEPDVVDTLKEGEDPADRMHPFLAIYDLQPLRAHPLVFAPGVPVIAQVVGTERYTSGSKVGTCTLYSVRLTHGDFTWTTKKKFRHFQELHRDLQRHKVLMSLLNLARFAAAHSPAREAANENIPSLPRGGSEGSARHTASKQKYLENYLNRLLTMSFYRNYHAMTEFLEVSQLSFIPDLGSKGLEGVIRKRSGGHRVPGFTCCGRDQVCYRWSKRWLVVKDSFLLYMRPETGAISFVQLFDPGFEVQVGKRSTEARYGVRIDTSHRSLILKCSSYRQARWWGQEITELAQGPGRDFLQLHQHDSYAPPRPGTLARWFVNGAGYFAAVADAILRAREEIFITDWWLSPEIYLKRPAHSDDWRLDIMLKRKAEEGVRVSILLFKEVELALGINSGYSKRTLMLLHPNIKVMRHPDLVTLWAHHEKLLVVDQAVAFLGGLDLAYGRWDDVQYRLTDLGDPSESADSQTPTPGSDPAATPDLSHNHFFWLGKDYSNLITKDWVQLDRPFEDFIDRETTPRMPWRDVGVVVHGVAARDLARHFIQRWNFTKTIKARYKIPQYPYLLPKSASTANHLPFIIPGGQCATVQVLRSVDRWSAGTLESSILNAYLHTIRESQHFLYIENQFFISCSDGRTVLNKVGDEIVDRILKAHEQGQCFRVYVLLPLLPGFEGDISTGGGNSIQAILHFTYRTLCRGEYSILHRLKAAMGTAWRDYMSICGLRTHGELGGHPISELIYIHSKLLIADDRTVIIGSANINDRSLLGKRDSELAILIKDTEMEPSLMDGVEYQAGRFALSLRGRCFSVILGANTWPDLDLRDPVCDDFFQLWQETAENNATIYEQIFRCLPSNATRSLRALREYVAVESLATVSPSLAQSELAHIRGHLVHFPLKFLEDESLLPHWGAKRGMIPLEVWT

Consider `Nc1ncnc2c1ncn2[C@@H]1O[C@H](COP(=O)(O)OP(=O)(O)OP(=O)(O)O)[C@@H](O)[C@H]1O` [ATP], for which the “Stimulation of lyso-PLD activity” value in the assay on lyso-PLD [1] is given as “did not stimulate lyso-PLD activity”.

Turning to `CCCCCCCCCCCCCCCCOC[C@@H](O)COP(=O)([O-])OCC[N+](C)(C)C` [C16-lyso-PAF], in the assay with lyso-PLD [2], the EC50 is roughly 400 µM.

`CCCCCCCCCCCCCCCC(=O)OC[C@@H](O)COP(=O)([O-])OCC[N+](C)(C)C` [C16-lyso-PC]: in the assay on lyso-PLD [2], the EC50 is roughly 300 µM.

As for `CCCCCCCCCCCCCCCCCCOC[C@@H](O)COP(=O)([O-])OCC[N+](C)(C)C` [C18-lyso-PAF], the 50% effective concentration (EC50) in the assay on lyso-PLD [2] was roughly 400 µM.

Regarding `CCCCCCCCCCCCCCCCCC(=O)OC[C@@H](O)COP(=O)([O-])OCC[N+](C)(C)C` [C18-lyso-PC], in the assay on lyso-PLD [2], the EC50 was roughly 300 µM.

Take `CCCCCCCC/C=C\CCCCCCCC(=O)OC[C@@H](O)COP(=O)([O-])OCC[N+](C)(C)C` [C18:1-lyso-PC]: the EC50 in the assay with lyso-PLD [2] was roughly 300 µM.

As to `O=S(=O)([O-])[O-].[Cu+2]` [copper sulfate], the “Inhibition of PLD in screening assays” value at PLD [3] is on record as “did not inhibit PLD”.

For the molecule `C[S+](C)[O-]` [dimethylsulfoxide], on PLD [3] (8%, cell line not stated), the “Effect on PLD activity” value is on record as “completely inhibited”. Besides, the “Effect on lyso-PLD activity” value in the assay on lyso-PLD [1] (8%, cell line not stated) was “relatively insensitive”.

On to `[Cl-].[Cl-].[Mg+2]` [magnesium chloride], for which, at PLD [3], the “Inhibition of PLD in screening assays” value is recorded as “did not inhibit PLD”. In addition, in the assay with lyso-PLD [1], the “Stimulation of lyso-PLD activity” value is recorded as “did not stimulate lyso-PLD activity”.

Take `O=S(=O)([O-])[O-].[Mg+2]` [magnesium sulfate]: the “Inhibition of PLD in screening assays” value on PLD [3] is given as “did not inhibit PLD”.

On to `O=[N+]([O-])c1ccc(OP(=O)(O)O)cc1` [para-nitrophenol phosphate], for which the “Inhibition of PLD in screening assays” value on PLD [3] is reported as “did not inhibit PLD”.

For the molecule `O=C([O-])C(=O)[O-].[K+].[K+]` [potassium oxalate], the “Inhibition of PLD in screening assays” value on PLD [3] (concentrations of 1–10 mM) is “did not inhibit PLD”.

Consider `[Na+].[Na+].[O]=[Mo](=[O])([O-])[O-]` [sodium molybdate], for which the “Inhibition of PLD in screening assays” value on PLD [3] (concentrations of 1–10 mM) is reported as “did not inhibit PLD”.

Take `O=C([O-])C(=O)[O-].[Na+].[Na+]` [sodium oxalate]: the “Inhibition of PLD in screening assays” value on PLD [3] (concentrations of 1–10 mM) was “did not inhibit PLD”.

Regarding `O=S(=O)([O-])[O-].[Zn+2]` [zinc sulfate], the “Inhibition of PLD in screening assays” value at PLD [3] was “did not inhibit PLD”.

As for `O=P(O)(O)OC(CO)CO` [β-glycerophosphate], the “Inhibition of PLD in screening assays” value at PLD [3] is on record as “did not inhibit PLD”.

Lyso-phosphatidylserine: the “Ability to compete with B-lyso-PC for utilization by lyso-PLD” value in the assay on lyso-PLD [2] is given as “poor competitor”.

Consider lyso-phosphatidylethanol, for which the “Ability to compete with B-lyso-PC for utilization by lyso-PLD” value in the assay with lyso-PLD [2] is “least effective”.

For pervanadate, in the assay on PLD [4], the “Inhibition of PLD in intact cells” value was “failed to show that vanadate, pervanadate, or iodate inhibits PLD”. Also, the “Effect on PLD in intact endothelial cells” value with PLD [5] is on record as “activate PLD”.

As to sodium orthovanadate, the “B-PBt levels in kinetic study” value at PLD [3] (1 mM added after 10 min, PC12K membranes, B-PC substrate) is given as “B-PBt levels declined”. Besides, the “Effect on PLD activity (production of B-PBt)” value at PLD [3] (1 mM, A7r5 membranes, B-PC substrate) is reported as “profound inhibition of PLD activity”. For the same molecule, in the assay with lyso-PLD [1], the “Effect on lyso-PLD activity (B-LPA from B-lyso-PC)” value is “did not inhibit” and the “Production of LPA in kinetic study” value is on record as “not significantly affected”. For the same molecule, the “Inhibition of PLD in intact cells” value with PLD [4] is “failed to show that vanadate, pervanadate, or iodate inhibits PLD”. In addition, in the assay with PLA2, the “B-lyso-PBt production in kinetic study” value was “continued but at a reduced rate”; the “Effect on PLA2 activity (generation of B-lyso-PC and B-lyso-PBt from B-PC)” value is “did not inhibit”; the “lyso-PC accumulation in kinetic study” value is listed as “did not affect lyso-PC accumulation”. The “Inhibition of PLC from Bacillus cereus” value with PLC from Bacillus cereus is “inhibit a PLC from Bacillus cereus”. Besides, in the assay on cabbage PLD, the “Direct inhibition of cabbage PLD” value is given as “directly inhibit cabbage PLD”.

As for sodium tungstate, at PLD [3] (concentrations of 1–10 mM), the “Inhibition of PLD in screening assays” value is “did not inhibit PLD”.

Usually EC50 stands for the concentration that produces a half-maximal response.
